Test results reported in ChEMBL document CHEMBL6083277, “Discovery of SZJK-0421: A Novel Potent, Low Toxicity, Selective Second Generation of CRM1 Inhibitor for the Treatment of Both Hematological and Solid Tumors” (J Med Chem, 2024).
Activity calls are given as the source filed them. The rule behind the calls is not given here.

Legend:
[1] = system: HCT-116; assay: Antiproliferative activity against human HCT-116 cells assessed as inhibition of cell growth incubated for 72 hrs by celltiter-glo assay; format: functional, cell-based; conditions: HCT-116, 72 h
[2] = target: Exportin-1 (Homo sapiens) (UniProt O14980); assay: Reversible binding affinity to CRM1 in human U2OS cells incubated for 4 hrs by DAPI staining based fluorescence microscopic analysis; format: cell-based
Chain of Exportin-1 (Homo sapiens) (O14980 whole entry): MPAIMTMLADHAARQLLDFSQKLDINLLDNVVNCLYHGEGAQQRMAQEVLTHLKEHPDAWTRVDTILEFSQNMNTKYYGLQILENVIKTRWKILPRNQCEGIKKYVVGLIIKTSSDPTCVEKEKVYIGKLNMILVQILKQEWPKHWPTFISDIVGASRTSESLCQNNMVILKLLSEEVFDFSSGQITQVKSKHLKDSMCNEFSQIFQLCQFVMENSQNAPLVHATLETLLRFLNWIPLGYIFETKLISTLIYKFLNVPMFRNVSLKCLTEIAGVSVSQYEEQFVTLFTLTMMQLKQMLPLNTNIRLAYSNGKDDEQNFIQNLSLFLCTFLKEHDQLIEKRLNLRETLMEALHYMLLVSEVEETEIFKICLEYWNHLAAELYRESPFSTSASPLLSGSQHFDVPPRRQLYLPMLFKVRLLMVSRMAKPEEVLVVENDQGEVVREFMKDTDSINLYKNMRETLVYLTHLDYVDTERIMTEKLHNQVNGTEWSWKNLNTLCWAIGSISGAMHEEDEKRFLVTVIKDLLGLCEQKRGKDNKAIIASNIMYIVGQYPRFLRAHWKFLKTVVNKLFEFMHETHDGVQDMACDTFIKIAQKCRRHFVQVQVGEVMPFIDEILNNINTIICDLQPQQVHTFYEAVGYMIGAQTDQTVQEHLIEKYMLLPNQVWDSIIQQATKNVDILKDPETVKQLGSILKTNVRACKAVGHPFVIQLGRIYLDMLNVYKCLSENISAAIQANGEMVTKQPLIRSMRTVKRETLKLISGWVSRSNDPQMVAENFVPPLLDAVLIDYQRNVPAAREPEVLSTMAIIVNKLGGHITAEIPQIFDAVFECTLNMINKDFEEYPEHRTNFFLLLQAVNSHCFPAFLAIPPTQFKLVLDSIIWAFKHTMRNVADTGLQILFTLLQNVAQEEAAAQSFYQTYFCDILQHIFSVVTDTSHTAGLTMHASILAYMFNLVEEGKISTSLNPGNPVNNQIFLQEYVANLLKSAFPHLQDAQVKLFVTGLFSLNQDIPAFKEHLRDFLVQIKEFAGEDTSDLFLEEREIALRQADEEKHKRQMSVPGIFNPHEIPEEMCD

[3] = system: ARH-77; assay: Antiproliferative activity against human ARH-77 cells assessed as inhibition of cell growth incubated for 72 hrs by celltiter-glo assay; format: functional, cell-based; conditions: ARH-77, 72 h
[4] = system: AN3-CA; assay: Antiproliferative activity against human AN3-CA cells assessed as inhibition of cell growth incubated for 72 hrs by celltiter-glo assay; format: functional, cell-based
[5] = target: Exportin-1 (Homo sapiens) (UniProt O14980); assay: Inhibition of CRM1 in human MM1.S cells assessed as accumulation of p53 protein level at 0.5 to 1 uM incubated for 24 hrs by Western blot analysis; format: cell-based; conditions: dose 0.5-1 µM
[6] = system: RPMI-8226; assay: Antiproliferative activity against human RPMI-8226 cells assessed as inhibition of cell growth incubated for 72 hrs by celltiter-glo assay; format: functional, cell-based; conditions: RPMI-8226, 72 h
[7] = Metabolic stability in dog liver microsomes assessed as intrinsic clearance measured upto 60 mins in presence of NADPH by LC/MS-MS analysis; format: ADME, Canis lupus familiaris, Microsome; conditions: read-out: CLH
[8] = AUC (0 to infinity) in male Sprague-Dawley rat at 2 mg/kg, iv measured upto 30 hrs by LC-MS/MS analysis; format: ADME, organism-based; conditions: in vivo
[9] = Metabolic stability in human liver microsomes assessed as intrinsic clearance measured upto 60 mins in presence of NADPH by LC/MS-MS analysis; format: ADME, Microsome; conditions: read-out: CLH
[10] = Toxicity in BALB/c mouse assessed as shortened intestinal tract at 90 to 120 mg/kg, po administered once daily for 21 days; format: organism-based; conditions: in vivo, 504 h, dose 90-120 mg/kg, time 21 day
[11] = Metabolic stability in rat liver microsomes assessed as intrinsic clearance measured upto 60 mins in presence of NADPH by LC/MS-MS analysis; format: ADME, Microsome; conditions: read-out: CLH
[12] = system: MOLM-13; assay: Antiproliferative activity against human MOLM-13 cells assessed as inhibition of cell growth incubated for 72 hrs by celltiter-glo assay; format: functional, cell-based; conditions: MOLM-13, 72 h
[13] = system: BXPC-3; assay: Antiproliferative activity against human BXPC-3 cells assessed as inhibition of cell growth incubated for 72 hrs by celltiter-glo assay; format: functional, cell-based; conditions: BXPC-3, 72 h
[14] = Half life in male Sprague-Dawley rat at 15 mg/kg, po measured upto 30 hrs by LC-MS/MS analysis; format: ADME, organism-based; conditions: in vivo
[15] = system: MM1.S; assay: Inhibition of CRM1 protein expression in human MM1.S cells by Western blot analysis; format: functional, cell-based; conditions: dose 0.25-1.25 µM
[16] = Toxicity in NOD-SCID mouse assessed as hyperplasia of crypt in intestine at 15 to 60 mg/kg, po measured every 2 days for 21 days by H and E staining based analysis; format: organism-based; conditions: in vivo, 504 h, dose 15-60 mg/kg, time 21 day
[17] = system: MM1.S; assay: Induction of apoptosis in human MM1.S cells at 0.5 to 1 uM incubated for 48 hrs by Annexin V-FITC/PI staining based flow cytometry analysis; format: functional, cell-based; conditions: dose 0.5-1 µM
[18] = Toxicity in NOD-SCID mouse assessed as reduction in cell density in tumor at 60 mg/kg, po measured every 2 days for 21 days by H and E staining based analysis; format: organism-based; conditions: in vivo, 504 h, time 21 day
[19] = system: MM1.S; assay: Antitumor activity against human MM1.S cells xenografted in NOD-SCID mouse assessed as tumor growth inhibition at 15 mg/kg, po qd measured upto 21 days; format: functional; conditions: 504 h, time <= 21 day, read-out: TGI
[20] = Toxicity in BALB/c mouse assessed as shortened intestine at 90 to 120 mg/kg, po administered once daily for 21 days; format: organism-based; conditions: in vivo, 504 h, dose 90-120 mg/kg, time 21 day
[21] = Toxicity in BALB/c mouse assessed as organ abnormalities at 30 to 60 mg/kg, po administered once daily for 21 days; format: organism-based; conditions: in vivo, 504 h, dose 30-60 mg/kg, time 21 day
[22] = Toxicity in NOD-SCID mouse implanted with human ARH-77 cells assessed as change in body weight at 15 to 60 mg/kg, po measured every 2 days for 21 days; format: organism-based; conditions: in vivo, 504 h, dose 15-60 mg/kg, time 21 day
[23] = Toxicity in BALB/c mouse assessed as side effect at 60 mg/kg, po administered once daily for 21 days; format: organism-based; conditions: in vivo, 504 h, time 21 day
[24] = target: Exportin-1 (Homo sapiens) (UniProt O14980); assay: Reversible competitive inhibition of human recombinant CRM1 at 2 uM incubated for 2 hrs in presence of 3-(1-((E)-3-(methoxyamino)-3-oxo-2-(pyrimidin-5-yl)prop-1-en-1-yl)-1H-1,2,4-triazol-3-yl)-5-(trifluoromethyl)phenyl 3-(5-((3aS,4S,6aR)-2-oxohexahydro-1H-thieno[3,4-d]imidazol-4-yl)pentanamido)propanoate by pull down based Western blot analysis
[25] = Oral bioavailability in male Sprague-Dawley rat at 10 mg/kg measured upto 30 hrs by LC-MS/MS analysis; format: ADME, organism-based; conditions: in vivo
[26] = Metabolic stability in mouse liver microsomes assessed as half life measured upto 60 mins in presence of NADPH by LC/MS-MS analysis; format: ADME, Microsome
[27] = AUC (0 to t) in male Sprague-Dawley rat at 10 mg/kg, po measured upto 30 hrs by LC-MS/MS analysis; format: ADME, organism-based; conditions: in vivo
[28] = system: MM1.S; assay: Inhibition of CRM1 protein expression in human MM1.S cells at 0.25 to 1.25 uM by Western blot analysis; format: functional, cell-based; conditions: dose 0.25-1.25 µM, time 2-24 hrs
[29] = AUC (0 to t) in male Sprague-Dawley rat at 2 mg/kg, iv measured upto 30 hrs by LC-MS/MS analysis; format: ADME, organism-based; conditions: in vivo
[30] = AUC (0 to infinity) in male Sprague-Dawley rat at 10 mg/kg, po measured upto 30 hrs by LC-MS/MS analysis; format: ADME, organism-based; conditions: in vivo
[31] = Metabolic stability in rat liver microsomes assessed as half life measured upto 60 mins in presence of NADPH by LC/MS-MS analysis; format: ADME, Microsome
[32] = Metabolic stability in mouse liver microsomes assessed as intrinsic clearance measured upto 60 mins in presence of NADPH by LC/MS-MS analysis; format: ADME, Microsome; conditions: read-out: CLH
[33] = Toxicity in NOD-SCID mouse assessed as appearance of spindle shape in tumor at 60 mg/kg, po measured every 2 days for 21 days by H and E staining based analysis; format: organism-based; conditions: in vivo, 504 h, time 21 day
[34] = system: HCT-116; assay: Antitumor activity against human HCT-116 cells xenografted in NOD-SCID mouse assessed as tumor growth inhibition at 60 mg/kg, po measured every 2 days for 21 days; format: functional, organism-based; conditions: time 21.0 day
[35] = system: MM1.S; assay: Antiproliferative activity against human MM1.S cells assessed as inhibition of cell growth incubated for 72 hrs by celltiter-glo assay; format: functional, cell-based
[36] = AUC (0 to t) in male Sprague-Dawley rat at 15 mg/kg, po measured upto 30 hrs by LC-MS/MS analysis; format: ADME, organism-based; conditions: in vivo
[37] = AUC (0 to infinity) in male Sprague-Dawley rat at 30 mg/kg, po measured upto 30 hrs by LC-MS/MS analysis; format: ADME, organism-based; conditions: in vivo
[38] = system: MM1.S; assay: Induction of apoptosis in human MM1.S cells assessed as increase in p53 level at 0.5 to 1 uM incubated for 48 hrs by Western blot analysis; format: functional, cell-based; conditions: dose 0.5-1 µM

CONC(=O)/C(=C/n1cnc(-c2cc(C(F)(F)F)cc(C(F)(F)F)c2)n1)c1cncnc1
IC50 [1]: 435 nM | Activity [2]: Active | IC50 [3]: 304 nM | IC50 [4]: 1080 nM | inhibition [5]: Active | IC50 [6]: 304 nM | microsomal CLint [7]: 2.6 µL/min/mg | AUC(0-inf) [8]: 1490 ng·h/mL | microsomal CLint [9]: 3.6 µL/min/mg | Activity [10]: Non-toxic | microsomal CLint [11]: 7.2 µL/min/mg | IC50 [12]: 478 nM | IC50 [13]: 3180 nM | half-life [14]: 4 h | inhibition [15]: Dose-dependent-effect | Activity [16]: Non-toxic | Activity [17]: Active | Activity [18]: Non-toxic | inhibition in vivo at 15 mg/kg [19]: 80.5% | Activity [20]: Non-toxic | Activity [21]: Non-toxic | Activity [22]: Toxic | Activity [23]: Non-toxic | inhibition [24]: Active | bioavailability [25]: 56% | half-life [26]: > 2 h | AUC(0-t) at 30 h [27]: 3610 ng·h/mL | inhibition [28]: Time-dependent-effect | AUC(0-t) at 30 h [29]: 1300 ng·h/mL | AUC(0-inf) [30]: 4180 ng·h/mL | half-life [31]: > 2 h | microsomal CLint [32]: 12.6 µL/min/mg | Activity [33]: Non-toxic | TGI [34]: Active | IC50 [35]: 87.1 nM | AUC(0-t) at 30 h [36]: 5080 ng·h/mL | AUC(0-inf) [37]: 10400 ng·h/mL | Activity [38]: Active
